Results on 1 compound are retold here after patent US20200239398A1, “METHYLENE-CYCLOALKYLACETATE DERIVATIVES AND THEIR USE IN TREATMENT OF NEUROTROPIC CONDITIONS” (Yissum Research Development Company of The Hebrew …, priority 2018, published 2020).

Where two headings read alike, the source gives them in different places.

In one data set the test system is male C57BL/6 mice. Kind of data set: Blood analysis 24 hours after injection. The format is in vivo. As for the experimental part:
Tail vein blood samples were taken from DMSO 1% treated control (n=3) and HU-MCA-13-injected mice (n=4) after 24 hours from injection and submitted for hematocrit cell counting and biochemical analysis. Blood analyses are depicted in FIG. 4. No difference in any assay (blood count, electrolytes, coagulation parameters) was noted between the DMSO and HU-MCA-13-injected mice. Of special importance are normal liver (ALP, AST, ALT) functions and normal kidney (creatinine and blood urea nitrogen) functions, indicating sufficient organ integrity at the end of the experimental period.

Data set [1] has as its target T1, N-methyl-D-aspartate (NMDA) Glutamate Receptor 1A/2B (NMDAR (1A/2B)) (Homo sapiens, UniProt Q05586+Q13224).
T1 construct: DiscoverX (SAFETYscan contract panel)
Kind of data set: SAFETYscan NMDAR (1A/2B) Ion channel. To be noted: Blocker mode; 10 μM HU-MCA-13; read-out: Maximal Response. Type of data set: cell-based.

Data set [2] deals with T2, Lymphocyte Cell-Specific Protein-Tyrosine Kinase (Src family) (LCK) (Homo sapiens, UniProt P06239).
T2 construct: DiscoverX (KINOMEscan)
T2 sequence (P06239 whole entry): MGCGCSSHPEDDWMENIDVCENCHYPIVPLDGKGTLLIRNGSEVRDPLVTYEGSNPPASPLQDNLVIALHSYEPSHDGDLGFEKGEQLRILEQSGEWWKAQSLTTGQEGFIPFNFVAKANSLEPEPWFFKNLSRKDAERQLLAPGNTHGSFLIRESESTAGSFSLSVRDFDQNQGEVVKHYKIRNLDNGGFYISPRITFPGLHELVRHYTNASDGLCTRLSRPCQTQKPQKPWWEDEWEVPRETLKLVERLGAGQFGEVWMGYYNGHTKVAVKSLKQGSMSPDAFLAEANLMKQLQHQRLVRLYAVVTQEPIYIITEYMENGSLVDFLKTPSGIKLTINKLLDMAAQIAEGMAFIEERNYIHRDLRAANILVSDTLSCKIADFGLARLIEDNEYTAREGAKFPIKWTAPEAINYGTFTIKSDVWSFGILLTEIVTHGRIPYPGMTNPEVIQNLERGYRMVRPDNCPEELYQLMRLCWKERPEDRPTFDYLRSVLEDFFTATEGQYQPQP
The data set can be described thus: SAFETYscan LCK kinase Binding. Particulars: Inhibitor mode, 10 μM HU-MCA-13, read-out: Maximal Response.

Data set [3] deals with Cannabinoid Receptor 2 (CNR2) (Homo sapiens, UniProt P34972). The data set can be described thus: SAFETYscan CNR2 cAMP. Type of data set: cell-based. To be noted: 10 μM HU-MCA-13; for Emax: read-out: Maximal Response.
Cannabinoid Receptor 2 (CNR2), sequence (P34972 whole entry): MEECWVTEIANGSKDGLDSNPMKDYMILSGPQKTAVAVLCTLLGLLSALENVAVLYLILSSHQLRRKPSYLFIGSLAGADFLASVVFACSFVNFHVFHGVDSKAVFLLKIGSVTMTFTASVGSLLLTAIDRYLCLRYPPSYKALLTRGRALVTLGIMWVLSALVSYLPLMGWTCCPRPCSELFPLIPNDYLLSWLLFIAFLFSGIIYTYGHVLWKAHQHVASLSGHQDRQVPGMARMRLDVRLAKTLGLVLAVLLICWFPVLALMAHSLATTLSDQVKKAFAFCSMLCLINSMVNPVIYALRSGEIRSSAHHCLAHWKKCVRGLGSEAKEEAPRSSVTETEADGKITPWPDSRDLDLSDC
The target in data set [4] is 5-Hydroxytryptamine (Serotonin) Receptor 2B (HTR2B) (Homo sapiens, UniProt P41595). The data set can be described thus: SAFETYscan HTR2B Calcium Flux. Type of data set: cell-based. To be noted: 10 μM HU-MCA-13, read-out: Maximal Response. (In general: Calcium assays in cells follow changes in intracellular calcium, usually with a dye or a luminescent sensor.)
5-Hydroxytryptamine (Serotonin) Receptor 2B (HTR2B), sequence (P41595 whole entry): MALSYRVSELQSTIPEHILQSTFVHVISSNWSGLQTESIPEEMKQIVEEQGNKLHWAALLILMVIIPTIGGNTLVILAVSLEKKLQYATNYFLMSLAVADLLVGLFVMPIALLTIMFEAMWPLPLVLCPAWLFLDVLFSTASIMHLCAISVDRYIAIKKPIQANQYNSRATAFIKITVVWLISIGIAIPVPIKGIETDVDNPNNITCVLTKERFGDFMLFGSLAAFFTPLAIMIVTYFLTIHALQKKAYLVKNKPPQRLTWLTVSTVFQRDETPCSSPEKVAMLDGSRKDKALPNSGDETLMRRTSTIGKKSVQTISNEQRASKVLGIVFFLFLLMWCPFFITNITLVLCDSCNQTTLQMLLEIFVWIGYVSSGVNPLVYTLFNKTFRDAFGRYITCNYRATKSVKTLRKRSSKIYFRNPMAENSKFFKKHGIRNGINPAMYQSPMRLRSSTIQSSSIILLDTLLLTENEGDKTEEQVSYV
In data set [5] the target is T3, Dopamine transporter (DAT) (Homo sapiens, UniProt Q01959).
T3 construct: DiscoverX (SAFETYscan contract panel)
T3 sequence (Q01959 whole entry): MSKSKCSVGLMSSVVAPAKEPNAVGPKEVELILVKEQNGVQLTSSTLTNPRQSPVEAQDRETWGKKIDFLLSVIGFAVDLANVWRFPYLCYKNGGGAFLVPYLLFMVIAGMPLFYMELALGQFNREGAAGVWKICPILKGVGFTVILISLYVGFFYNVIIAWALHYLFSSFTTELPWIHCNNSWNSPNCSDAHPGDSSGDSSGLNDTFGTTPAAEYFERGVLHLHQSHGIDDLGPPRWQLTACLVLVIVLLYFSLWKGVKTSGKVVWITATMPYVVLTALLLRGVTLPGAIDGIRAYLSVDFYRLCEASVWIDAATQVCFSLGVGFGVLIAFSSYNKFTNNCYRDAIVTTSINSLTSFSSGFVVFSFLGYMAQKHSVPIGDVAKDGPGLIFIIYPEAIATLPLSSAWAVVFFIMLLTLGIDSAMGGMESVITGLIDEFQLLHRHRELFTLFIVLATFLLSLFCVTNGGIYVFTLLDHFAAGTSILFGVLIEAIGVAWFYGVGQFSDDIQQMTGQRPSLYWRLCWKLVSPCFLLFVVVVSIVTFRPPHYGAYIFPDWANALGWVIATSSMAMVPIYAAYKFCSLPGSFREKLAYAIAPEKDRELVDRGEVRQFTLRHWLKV
The data set can be described thus: SAFETYscan DAT Transporter. The format is cell-based. To be noted: Blocker mode; 10 μM HU-MCA-13; read-out: Maximal Response.

Data set [6] has as its target Dopamine Receptor D2 (DRD2S) (Homo sapiens, UniProt P14416). Kind of data set: SAFETYscan DRD2S cAMP. The format is cell-based. To be noted: 10 μM HU-MCA-13.
Data set [7] has as its target T4, Acetylcholinesterase (AChE) (Homo sapiens, UniProt P22303).
T4 construct: DiscoverX (SAFETYscan contract panel)
The data set can be described thus: SAFETYscan AChE Enzymatic. Type of data set: biochemical. Particulars: Inhibitor mode; 10 μM HU-MCA-13; read-out: Maximal Response.

The test system of another data set is PC12 cells. The data set can be described thus: Additive neurotropic effect between HU-MCA-13 and NGF, PC12 neurite outgrowth. The format is cell-based, rat. The method, then:
PC12 cells were cultured in T-200 flasks in high glucose (4.5 gr/L) DMEM medium supplemented with 7% FCS, 7% horse serum and 1% penicillin and streptomycin. Cells will be maintained at 37° C. in a humidified incubator containing 6% CO2. All experiments were carried out in a GLP clean room, according to ISO 7 requirements (10,000 particles/m^3). For neurotropic experiments, tissue culture Falcon plates were coated with 200 μg/ml collagen type 1 and placed under UV light for 30 minutes for sterilization. Thereafter, one ml of PC12 cell suspension (5000 cells/well) was applied in 12 or 24 well plate, respectively. The cultures were maintained in the incubator two days before exposure to investigated compound. Each neurotropic experiment contained two controls. The first consisted of untreated cells (negative control), representing the random effect: “noise signal”—the ability of cells to spontaneously grow neurite outgrowth which in seven days are of a length less than two-fold cell diameter. Also, negative controls consisted of cultures treated with 1% DMSO, solvent used to solubilize HU-MCA-13. The positive controls represented neuronal cultures treated with 50 ng/ml NGF, indicating maximal neurite outgrowth that can be achieved in this model. The experimental group consisted of PC12 cells treated with 10 μM HU-MCA-13. In each experiment, after two and seven days, six cultures will be evaluated for neurotropic effect. These consecutive observations allow measurement of the progress of neurite outgrowth elongation and the percentage of cells with neurites (Katzir et al. A quantitative bioassay for nerve growth factor, using PC12 clones expressing different levels of trkA receptors. J Mol Neurosci. 2002; 18(3):251-64). In order to assess neurotropic effect, the neurite outgrowth length in each culture was quantified. For this purpose, each culture was placed under an inverted microscope and photographed by the attached camera. Each well was photographed at three to five representative areas. After acquiring the photos, they were analyzed by ImageJ, NIH software. The neurite outgrowth was estimated by fractal dimension (Df), a statistical parameter that describes the fractional space (area and length) filled by neurite outgrowth. Df ranged from 0 to 1.20. This method estimated the amount of picsels covered by neurites/cells compared to empty space per square field, and therefore plotting log(number of square boxes) vs. log(size in pixels) relationship generated a linear curve with Df representing the slope of the curve. Every photograph that was taken, was opened in a Photoshop software and a new layer was generated on it. Using a 5-pixel wide digital pencil tool, all the outgrowths were marked and the layer with the markers (outgrowth network) were saved in a 0-255 gray scale. Thereafter, the saved layer was opened by ImageJ NIH software.
Using an established PC12 neurotropic in vitro assay, the regenerative enhancing effect of HU-MCA-13 when applied concomitantly, together with NGF, a known neurotrophin was investigated. […] NGF alone, as positive control, at the conventional dose of 50 ng/ml enhanced neurite outgrowth to a Df value of 0.54 at 2 days and 0.4 at 7 days of treatment (FIG. 5). To verify a possible additive effect, the cultures with a mixture of low dose NGF (1 ng/ml generating 10% neurite outgrowth=Df of 0.05) and 1 μM HU-MCA-13 generating about 10-15% neurite outgrowth=Df of 0.04) were tested and found after 2 days a Df of 0.85 and after 7 days a Df of 0.38. NGF is released by hematopoietic cells during polyneuropathy inflammatory process, this finding further strength the possibility of a potential enhancement regenerative effect of this drug upon in vivo therapy.

Data set [8] has as its target T5, Nuclear Hormone Glucocorticoid Receptor (GR) (Homo sapiens, UniProt P04150).
T5 construct: DiscoverX (SAFETYscan contract panel)
The data set can be described thus: SAFETYscan GR Nuclear Hormone Receptor Translocation. Type of data set: cell-based. To be noted: 10 μM HU-MCA-13, read-out: Maximal Response.

Data set [9] deals with T6, A tetrodotoxin-resistant voltage-gated sodium channel (NAVI1.5) (Homo sapiens, UniProt Q14524).
T6 construct: DiscoverX (SAFETYscan contract panel)
Kind of data set: cell-based. Particulars: read-out: Maximal Response.

A further data set deals with T7, hERG (Kv11.1) (Homo sapiens, UniProt Q12809).
T7 construct: DiscoverX (SAFETYscan contract panel)
Kind of data set: in vitro. Type of data set: cell-based. To be noted: Blocker mode, 10 μM HU-MCA-13, read-out: Maximal Response.

T5 sequence (P04150 whole entry): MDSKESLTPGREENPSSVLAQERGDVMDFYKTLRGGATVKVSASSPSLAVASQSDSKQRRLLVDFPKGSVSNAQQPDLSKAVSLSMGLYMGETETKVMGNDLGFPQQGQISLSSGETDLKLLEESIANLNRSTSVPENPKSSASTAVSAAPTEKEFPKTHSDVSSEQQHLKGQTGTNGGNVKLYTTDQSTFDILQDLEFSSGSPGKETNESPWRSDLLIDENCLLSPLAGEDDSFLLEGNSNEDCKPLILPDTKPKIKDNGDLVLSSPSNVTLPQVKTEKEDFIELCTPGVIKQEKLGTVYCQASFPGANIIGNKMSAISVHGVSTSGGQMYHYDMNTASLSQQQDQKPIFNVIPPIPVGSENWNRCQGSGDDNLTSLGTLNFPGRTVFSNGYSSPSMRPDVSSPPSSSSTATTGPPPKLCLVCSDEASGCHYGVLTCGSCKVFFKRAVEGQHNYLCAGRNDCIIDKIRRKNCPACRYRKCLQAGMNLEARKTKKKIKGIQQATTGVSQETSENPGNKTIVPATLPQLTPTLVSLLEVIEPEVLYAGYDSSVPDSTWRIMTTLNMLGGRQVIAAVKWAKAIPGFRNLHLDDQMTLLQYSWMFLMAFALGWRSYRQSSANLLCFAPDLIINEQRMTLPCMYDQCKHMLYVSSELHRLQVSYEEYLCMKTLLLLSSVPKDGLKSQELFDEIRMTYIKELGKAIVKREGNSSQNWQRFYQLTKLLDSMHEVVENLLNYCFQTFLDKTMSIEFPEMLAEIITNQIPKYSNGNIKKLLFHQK
Dopamine Receptor D2 (DRD2S), sequence (P14416 1-414 isoform P14416-2): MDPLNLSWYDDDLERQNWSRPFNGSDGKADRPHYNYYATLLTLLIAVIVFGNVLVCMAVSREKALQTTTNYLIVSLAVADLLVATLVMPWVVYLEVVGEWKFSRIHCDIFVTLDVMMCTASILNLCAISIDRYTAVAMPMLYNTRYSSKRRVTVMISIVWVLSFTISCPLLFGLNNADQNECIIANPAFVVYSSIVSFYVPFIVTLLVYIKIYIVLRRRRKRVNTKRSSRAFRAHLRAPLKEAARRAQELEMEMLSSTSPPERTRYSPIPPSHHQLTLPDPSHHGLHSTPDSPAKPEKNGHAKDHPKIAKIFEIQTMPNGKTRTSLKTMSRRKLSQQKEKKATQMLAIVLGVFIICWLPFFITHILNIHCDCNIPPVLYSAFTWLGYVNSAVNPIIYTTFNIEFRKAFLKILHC
T1 sequence (Q13224 27-1484, other chains not shown): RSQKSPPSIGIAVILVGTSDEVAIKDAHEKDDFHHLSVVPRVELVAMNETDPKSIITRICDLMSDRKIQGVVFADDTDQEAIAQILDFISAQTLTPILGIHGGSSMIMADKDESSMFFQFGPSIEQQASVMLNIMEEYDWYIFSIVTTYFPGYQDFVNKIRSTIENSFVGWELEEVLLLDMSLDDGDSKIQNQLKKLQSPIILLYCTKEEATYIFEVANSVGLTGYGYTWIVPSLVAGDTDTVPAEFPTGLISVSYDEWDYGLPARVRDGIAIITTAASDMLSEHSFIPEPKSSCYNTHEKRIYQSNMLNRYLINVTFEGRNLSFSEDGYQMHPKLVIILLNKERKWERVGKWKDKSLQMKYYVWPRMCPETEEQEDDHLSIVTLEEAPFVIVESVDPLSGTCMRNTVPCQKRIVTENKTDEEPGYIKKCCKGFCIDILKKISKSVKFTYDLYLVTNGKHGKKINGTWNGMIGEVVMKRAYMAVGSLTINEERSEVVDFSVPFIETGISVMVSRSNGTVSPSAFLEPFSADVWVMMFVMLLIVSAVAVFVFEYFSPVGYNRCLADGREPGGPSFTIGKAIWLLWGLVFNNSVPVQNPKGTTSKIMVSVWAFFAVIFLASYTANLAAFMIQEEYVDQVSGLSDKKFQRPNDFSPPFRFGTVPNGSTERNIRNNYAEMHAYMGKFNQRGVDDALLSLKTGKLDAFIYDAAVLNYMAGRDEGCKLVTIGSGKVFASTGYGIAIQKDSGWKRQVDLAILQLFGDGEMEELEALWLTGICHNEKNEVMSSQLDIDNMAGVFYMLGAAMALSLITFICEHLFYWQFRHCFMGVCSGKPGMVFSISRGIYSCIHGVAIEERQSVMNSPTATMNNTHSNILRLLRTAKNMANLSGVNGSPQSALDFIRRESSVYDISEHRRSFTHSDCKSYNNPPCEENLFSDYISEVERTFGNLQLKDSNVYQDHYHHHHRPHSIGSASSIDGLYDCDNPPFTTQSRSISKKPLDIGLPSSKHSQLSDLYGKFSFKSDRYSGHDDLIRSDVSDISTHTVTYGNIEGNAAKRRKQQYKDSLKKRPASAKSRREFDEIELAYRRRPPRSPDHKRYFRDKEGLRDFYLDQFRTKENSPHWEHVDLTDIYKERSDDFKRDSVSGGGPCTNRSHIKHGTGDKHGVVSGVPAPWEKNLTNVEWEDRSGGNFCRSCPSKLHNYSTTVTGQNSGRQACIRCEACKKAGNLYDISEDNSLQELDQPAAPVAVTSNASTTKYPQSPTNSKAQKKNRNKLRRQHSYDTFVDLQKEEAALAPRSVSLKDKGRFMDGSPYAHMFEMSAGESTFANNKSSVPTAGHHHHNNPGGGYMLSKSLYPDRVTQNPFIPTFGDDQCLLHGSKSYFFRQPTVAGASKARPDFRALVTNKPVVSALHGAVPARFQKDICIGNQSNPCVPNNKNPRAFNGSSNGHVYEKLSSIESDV

As for `C=CCC1CCC[C@@H](CCC(=O)O)C1=C` (some centres unmarked) [Compound 13], in the data set on male C57BL/6 mice (24 hours after 250 mg/kg iv), the “kidney (creatinine and blood urea nitrogen) functions” value was “normal”. Also, in the data set on male C57BL/6 mice (24 hours after 250 mg/kg iv), the “liver (ALP, AST, ALT) functions” value is on record as “normal”. For the same compound, the bilirubin concentration entry in the data set on male C57BL/6 mice (in both control and HU-MCA-13-injected mice) is reported as “some fluctuation”. The “blood count, electrolytes, coagulation parameters” value in the data set on male C57BL/6 mice (vs DMSO 1% control, 24 hours after 250 mg/kg iv) was “No difference”. Further, the Emax in data set [1] was 0%; in [2], 12.8%; in data set [3] (Agonist mode), 49.6%; in data set [3] (Antagonist mode), 4.11%; in data set [4] (Agonist mode), 0%; in data set [4] (Antagonist mode) it was 0.13%. Besides, the Emax in data set [5] stood at 0%; in data set [6] (read-out: Maximal Response, Agonist mode), 0%; in [6] (read-out: Maximal Response, Antagonist mode) it was 0.51%; in data set [7] it was 4.27%; in data set [8] (Agonist mode) it was 0%; in [8] (Antagonist mode), 2.28%. For the same compound, in data set [9], the Emax turned out to be 0%. Besides, in [3] (Agonist mode), the “Maximal Response” value stood at 49.59%. Besides, the neurite outgrowth with PC12 cells (1 μM HU-MCA-13) is recorded as 10-15%. Also, the “neurite outgrowth Df” value in the data set with PC12 cells (1 μM HU-MCA-13) turned out to be 0.04; with PC12 cells (HU-MCA-13 alone at 10 μM, 2 days), 0.36; in the data set on PC12 cells (HU-MCA-13 alone at 10 μM, 7 days), 0.30. Further, the Emax at 10 μM on hERG (Kv11.1) came to 0%.
